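Where inhibition never reached the appropriate level, the endpoint shown equals the highest concentration tested. Otherwise, values were interpolated linearly from a five-concentration, 48-hour dose response in 96-well plates. GI50 is the concentration that inhibits growth by half. TGI: total growth inhibition.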
Experiments:
Test in all cases: NCI anticancer screen, dose series, 48 h
ACHN renal = tested on: ACHN renal
OVCAR-3 ovarian = tested on: OVCAR-3 ovarian
NCI-H226 lung = tested on: NCI-H226 lung
A549 NSCLC = tested on: A549 NSCLC
SK-OV-3 ovarian = tested on: SK-OV-3 ovarian
HOP-62 NSCLC = tested on: HOP-62 NSCLC
UACC-62 melanoma = tested on: UACC-62 melanoma
HCT-116 colon = tested on: HCT-116 colon
RXF 393 renal = tested on: RXF 393 renal
MCF7 breast = tested on: MCF7 breast

## O=C(CC/C(CC(=O)c1ccc(Cl)cc1)=N/O)Nc1ccc(Cl)c(Cl)c1
ACHN renal
  TGI: > 100 µM
OVCAR-3 ovarian
  TGI: > 100 µM
NCI-H226 lung
  TGI: > 100 µM
A549 NSCLC
  TGI: > 100 µM
SK-OV-3 ovarian
  TGI: > 100 µM
HOP-62 NSCLC
  TGI: > 100 µM
UACC-62 melanoma
  TGI: > 100 µM
HCT-116 colon
  TGI: > 100 µM

## N#CCCN(CCC#N)c1ccc(/C=N\c2nc(-c3ccccc3)cs2)cc1
ACHN renal
  TGI: > 100 µM
OVCAR-3 ovarian
  TGI: > 100 µM
NCI-H226 lung
  TGI: > 100 µM
A549 NSCLC
  TGI: > 100 µM
SK-OV-3 ovarian
  TGI: > 100 µM
HOP-62 NSCLC
  TGI: > 100 µM
RXF 393 renal
  TGI: > 100 µM
UACC-62 melanoma
  TGI: > 100 µM
HCT-116 colon
  TGI: > 100 µM

## CCCCCCCCCCCCSC(=NC)NC
ACHN renal
  GI50: 1.73 µM
  TGI: 3.35 µM
OVCAR-3 ovarian
  GI50: 2 µM
  TGI: 4.82 µM
A549 NSCLC
  GI50: 2.12 µM
  TGI: 4.76 µM
SK-OV-3 ovarian
  GI50: 4.26 µM
  TGI: 19 µM
HOP-62 NSCLC
  GI50: 1.94 µM
  TGI: 4.59 µM
RXF 393 renal
  GI50: 1.89 µM
  TGI: 4.15 µM
UACC-62 melanoma
  GI50: 1.68 µM
  TGI: 3.21 µM

## N#CCc1ccc(/C(C#N)=C2/OC(=N)C(c3ccc(CC#N)cc3)C2=O)cc1 (stereo not drawn)
ACHN renal
  TGI: > 100 µM
OVCAR-3 ovarian
  TGI: > 100 µM
NCI-H226 lung
  TGI: > 100 µM
A549 NSCLC
  TGI: > 100 µM
SK-OV-3 ovarian
  TGI: > 100 µM
HOP-62 NSCLC
  TGI: > 100 µM
RXF 393 renal
  TGI: > 100 µM
UACC-62 melanoma
  TGI: > 100 µM
HCT-116 colon
  TGI: > 100 µM

## COc1ccc(/C(=N\O)c2cc(OC)c(OC)c(OC)c2)c(OC)c1N
ACHN renal
  GI50: 7.68 µM
  TGI: > 100 µM
OVCAR-3 ovarian
  GI50: 2.53 µM
  TGI: 7.8 µM
MCF7 breast
  GI50: 2.46 µM
  TGI: > 100 µM
NCI-H226 lung
  GI50: 46.6 µM
  TGI: > 100 µM
A549 NSCLC
  GI50: 6.26 µM
  TGI: > 100 µM
SK-OV-3 ovarian
  GI50: 3.82 µM
  TGI: > 100 µM
HOP-62 NSCLC
  GI50: 4.26 µM
  TGI: > 100 µM
RXF 393 renal
  GI50: 2.79 µM
  TGI: > 100 µM
HCT-116 colon
  GI50: 2.82 µM
  TGI: > 100 µM

## Cc1ccc(-c2nc3c(C(=O)NCCN(C)C)cccc3[nH]2)cc1
ACHN renal
  TGI: 28.9 µM
OVCAR-3 ovarian
  TGI: 86.7 µM
NCI-H226 lung
  TGI: 31.7 µM
A549 NSCLC
  TGI: 34.5 µM
SK-OV-3 ovarian
  TGI: 72.8 µM
HOP-62 NSCLC
  TGI: 36.1 µM
RXF 393 renal
  TGI: 24.1 µM
UACC-62 melanoma
  TGI: 32.5 µM
HCT-116 colon
  TGI: 20.1 µM

## COC(=O)c1c(C)cc2c(c1O)C1(O)C(=O)c3cc4c(c(O)c3C(=O)C1(OC)C(O)C2)C(=O)C=C(NC1OC(C)C(OC)C(O)C1OC)C4=O (stereo not drawn)
ACHN renal
  TGI: 0.205 µM
OVCAR-3 ovarian
  TGI: 0.558 µM
NCI-H226 lung
  TGI: 0.416 µM
A549 NSCLC
  TGI: 1.03 µM
SK-OV-3 ovarian
  TGI: 1.58 µM
HOP-62 NSCLC
  TGI: 1.26 µM
RXF 393 renal
  TGI: 0.0525 µM
UACC-62 melanoma
  TGI: 0.0502 µM
HCT-116 colon
  TGI: 0.177 µM

## O=C(Nc1ccc([N+](=O)[O-])cc1C(=O)O)c1ccc([N+](=O)[O-])cc1
ACHN renal
  TGI: > 100 µM
OVCAR-3 ovarian
  TGI: > 100 µM
NCI-H226 lung
  TGI: 91.6 µM
A549 NSCLC
  TGI: > 100 µM
SK-OV-3 ovarian
  TGI: > 100 µM
HOP-62 NSCLC
  TGI: > 100 µM
UACC-62 melanoma
  TGI: > 100 µM
HCT-116 colon
  TGI: 53.9 µM

## Cc1[nH]n(-c2ccc(S(=O)(=O)O)cc2)c(=O)c1N=Nc1ccccc1
ACHN renal
  TGI: > 100 µM
OVCAR-3 ovarian
  TGI: > 100 µM
MCF7 breast
  TGI: > 100 µM
A549 NSCLC
  TGI: > 100 µM
SK-OV-3 ovarian
  TGI: > 100 µM
HOP-62 NSCLC
  TGI: > 100 µM
RXF 393 renal
  TGI: > 100 µM
UACC-62 melanoma
  TGI: > 100 µM
HCT-116 colon
  TGI: > 100 µM

## COCOCc1cc(OCc2ccccc2)c(OC)cc1Br
ACHN renal
  TGI: > 100 µM
OVCAR-3 ovarian
  TGI: > 100 µM
A549 NSCLC
  TGI: > 100 µM
HOP-62 NSCLC
  TGI: > 100 µM
RXF 393 renal
  TGI: > 100 µM
UACC-62 melanoma
  TGI: > 100 µM
HCT-116 colon
  TGI: > 100 µM

## O=C1Cc2ccccc2N1c1c(Cl)cccc1Cl
ACHN renal
  TGI: > 100 µM
OVCAR-3 ovarian
  TGI: > 100 µM
NCI-H226 lung
  TGI: > 100 µM
A549 NSCLC
  TGI: > 100 µM
SK-OV-3 ovarian
  TGI: > 100 µM
HOP-62 NSCLC
  TGI: > 100 µM
UACC-62 melanoma
  TGI: > 100 µM
HCT-116 colon
  TGI: > 100 µM

## Oc1ccc2ccccc2c1C(c1ccc(Cl)cc1)c1c(O)ccc2ccccc12
ACHN renal
  TGI: 15.4 µM
OVCAR-3 ovarian
  TGI: 9.06 µM
MCF7 breast
  TGI: 11.5 µM
A549 NSCLC
  TGI: 10.8 µM
SK-OV-3 ovarian
  TGI: 19.9 µM
HOP-62 NSCLC
  TGI: 16 µM
RXF 393 renal
  TGI: 8.28 µM
UACC-62 melanoma
  TGI: 15.1 µM
HCT-116 colon
  TGI: 9.36 µM

## Cc1cc(Cl)ccc1NC(=O)CC1SC(N)=NC1=O (stereo not drawn)
ACHN renal
  TGI: > 100 µM
OVCAR-3 ovarian
  TGI: > 100 µM
NCI-H226 lung
  TGI: > 100 µM
A549 NSCLC
  TGI: > 100 µM
SK-OV-3 ovarian
  TGI: > 100 µM
HOP-62 NSCLC
  TGI: > 100 µM
RXF 393 renal
  TGI: > 100 µM
UACC-62 melanoma
  TGI: > 100 µM

## O=C1CCCC(=O)C1=C(O)CCCCCCCCCCc1ccccc1
ACHN renal
  TGI: > 100 µM
OVCAR-3 ovarian
  TGI: > 100 µM
NCI-H226 lung
  TGI: 96.9 µM
A549 NSCLC
  TGI: > 100 µM
SK-OV-3 ovarian
  TGI: 96.8 µM
HOP-62 NSCLC
  TGI: > 100 µM
RXF 393 renal
  TGI: 92.7 µM
UACC-62 melanoma
  TGI: > 100 µM
HCT-116 colon
  TGI: > 100 µM

## CCOC(=O)N[C@H]1CCc2cc(O)c(OC)c(OC)c2-c2ccc(SC)c(=O)cc21
ACHN renal
  TGI: > 100 µM
OVCAR-3 ovarian
  TGI: 0.0375 µM
NCI-H226 lung
  TGI: 1.25 µM
A549 NSCLC
  TGI: > 100 µM
SK-OV-3 ovarian
  TGI: > 8.57 µM
HOP-62 NSCLC
  TGI: > 100 µM
RXF 393 renal
  TGI: 0.0207 µM
UACC-62 melanoma
  TGI: > 100 µM
HCT-116 colon
  TGI: 10.7 µM

## CN(C)CC(C)(C)C(/C=C/c1ccccc1)=N\Nc1ccccc1
ACHN renal
  TGI: 1.25 µM
OVCAR-3 ovarian
  TGI: 14 µM
A549 NSCLC
  TGI: 4.19 µM
SK-OV-3 ovarian
  TGI: 38.8 µM
HOP-62 NSCLC
  TGI: 64.7 µM
RXF 393 renal
  TGI: 32.8 µM
UACC-62 melanoma
  TGI: 1.07 µM
HCT-116 colon
  TGI: 15.7 µM

## Cn1cnc([N+](=O)[O-])c1SC1=NCCS1
ACHN renal
  TGI: > 100 µM
OVCAR-3 ovarian
  TGI: > 100 µM
NCI-H226 lung
  TGI: > 100 µM
A549 NSCLC
  TGI: > 100 µM
SK-OV-3 ovarian
  TGI: > 100 µM
HOP-62 NSCLC
  TGI: > 100 µM
UACC-62 melanoma
  TGI: > 100 µM
HCT-116 colon
  TGI: > 100 µM

## CCN(CC)CCC(=O)N1CCc2c([nH]c3ccccc23)C1c1cccnc1 (stereo not drawn)
ACHN renal
  TGI: > 100 µM
OVCAR-3 ovarian
  TGI: > 100 µM
A549 NSCLC
  TGI: > 100 µM
SK-OV-3 ovarian
  TGI: > 100 µM
HOP-62 NSCLC
  TGI: > 100 µM
UACC-62 melanoma
  TGI: > 100 µM
HCT-116 colon
  TGI: > 100 µM

## Oc1ccc2c3c1OC1C(=NN=C4CCC5(O)C6Cc7ccc(O)c8c7C5(CCN6CC5CC5)C4O8)CCC4(O)C(C2)N(CC2CC2)CCC314 (stereo not drawn)
ACHN renal
  TGI: > 100 µM
OVCAR-3 ovarian
  TGI: 34.6 µM
NCI-H226 lung
  TGI: > 100 µM
A549 NSCLC
  TGI: 42.3 µM
SK-OV-3 ovarian
  TGI: > 75.2 µM
HOP-62 NSCLC
  TGI: > 65.7 µM
RXF 393 renal
  TGI: > 100 µM
UACC-62 melanoma
  TGI: 41.2 µM
HCT-116 colon
  TGI: 30.1 µM

## CC(=O)c1c(O)ccc2c(C)c(C(=O)O)oc12
ACHN renal
  GI50: > 100 µM
  TGI: > 100 µM
OVCAR-3 ovarian
  GI50: > 100 µM
  TGI: > 100 µM
MCF7 breast
  GI50: > 100 µM
  TGI: > 100 µM
NCI-H226 lung
  GI50: 0.0188 µM
  TGI: 12.2 µM
A549 NSCLC
  GI50: > 100 µM
  TGI: > 100 µM
HOP-62 NSCLC
  GI50: > 100 µM
  TGI: > 100 µM
RXF 393 renal
  GI50: > 100 µM
  TGI: > 100 µM
UACC-62 melanoma
  GI50: 80.4 µM
  TGI: > 100 µM
HCT-116 colon
  GI50: > 100 µM
  TGI: > 100 µM

## Cn1cnc([N+](=O)[O-])c1Sc1nc2cccnc2s1
ACHN renal
  TGI: 80.6 µM
OVCAR-3 ovarian
  TGI: 28.1 µM
NCI-H226 lung
  TGI: 36.5 µM
A549 NSCLC
  TGI: > 100 µM
SK-OV-3 ovarian
  TGI: > 100 µM
HOP-62 NSCLC
  TGI: > 100 µM
RXF 393 renal
  TGI: 32.9 µM
UACC-62 melanoma
  TGI: 32 µM
HCT-116 colon
  TGI: 29.5 µM

## C#C[C@@]1(O)CCCC2=CC(=O)C[C@]21C
ACHN renal
  TGI: > 100 µM
OVCAR-3 ovarian
  TGI: > 100 µM
NCI-H226 lung
  TGI: > 100 µM
A549 NSCLC
  TGI: > 100 µM
SK-OV-3 ovarian
  TGI: > 100 µM
RXF 393 renal
  TGI: > 100 µM
